Source: publication PMC12530850, “Synthesis, antidiabetic evaluation, and computational modeling of 3-acetyl-8-ethoxy coumarin derived hydrazones and thiosemicarbazones” (RSC Advances, 2025)
Several values for one entry are separate records, joined by “and”; a condition that tells them apart may be missing. Identical values can stand only once.

Experiments:
α-amylase = α-amylase inhibition assay (starch substrate); assay type: biochemical; details: pH 6.9, 35 °C
Experimental: A 0.4 M starch combination was made in 80 mL of NaOH solution and heated to 80 °C for 30 minutes in order to create the starch. After that, 10 μL of various chemical concentrations were combined with 35 μL of starch solution and 35 μL of phosphate buffer (pH 6.9), and the mixture was incubated for 25 minutes at 35 °C. Finally, the final combination was reincubated for 25 minutes after 20 μL of the α-amylase solution was added. Each tube was filled with 50 μL of HCl (0.1 M) to complete the reactions. At 580 nm, the absorbance was measured. The amount of αamylase needed to release one μmol of reducing sugar, which is estimated to be glucose per minute at pH 6.9 and 40 °C, is known as one α-amylase unit.[52,53]

[1] = Antioxidant assay (metal chelating, Fe^2+ binding at 522 nm); details: Fe^2+ chelating
Experimental: Fe^2+ chelating ability of novel compounds was predicted according to Dinis et al.[54] with slight modification. Fe^2+-binding capacity of novel compounds was spectrophotometrically recorded at 522 nm. This study was conducted based on previous papers.[55,56]
In this section, we studied the metal chelating method, one of the antioxidant methods for toxicity. To stop the metal ions from serving as catalysts of lipid oxidation, metal-chelating antioxidants are thus added to food products. […] In this study, EDTA was used as a standard.

SMILES | IC50 (α-amylase) | Metal chelating (IC50) [1] [µg/mL]
CCOc1cccc2cc(/C(C)=N/NC(=O)c3cccs3)c(=O)oc12 [Compound 3a, (E)-N′-[1-(8-Ethoxy-2-oxo-2H-chromen-3-yl)ethylidene]thiophene-2-carbohydrazide] | 430 ± 7.6 nM | >100
CCOc1cccc2cc(/C(C)=N/NC(=O)c3ccc(F)cc3)c(=O)oc12 [Compound 3b, (E)-N′-[1-(8-Ethoxy-2-oxo-2H-chromen-3-yl)ethylidene]-4-fluorobenzohydrazide] | 252 nM and 159 nM | >100
CCOc1cccc2cc(/C(C)=N/NC(=O)c3ccc(Br)cc3)c(=O)oc12 [Compound 3c, (E)-4-Bromo-N′-[1-(8-ethoxy-2-oxo-2H-chromen-3-yl)ethylidene]benzohydrazide] | 209 ± 12.4 nM | >100
CCOc1cccc2cc(/C(C)=N/NC(=O)c3ccccc3OC)c(=O)oc12 [Compound 3d, (E)-N′-[1-(8-Ethoxy-2-oxo-2H-chromen-3-yl)ethylidene]-2-methoxybenzohydrazide] | 177 ± 8.25 nM | >100
CCOc1cccc2cc(/C(C)=N/NC(=O)c3cnccn3)c(=O)oc12 [Compound 3e, (E)-N′-[1-(8-Ethoxy-2-oxo-2H-chromen-3-yl)ethylidene]pyrazine-2-carbohydrazide] | 479 ± 8.7 nM | >100
CCOc1cccc2cc(/C(C)=N/NC(=O)c3c[nH]c4ccccc34)c(=O)oc12 [Compound 3f, (E)-N′-[1-(8-Ethoxy-2-oxo-2H-chromen-3-yl)ethylidene]-1H-indole-3-carbohydrazide] | 425 ± 11.1 nM | >100
CCOc1cccc2cc(/C(C)=N/NC(=O)c3ccco3)c(=O)oc12 [Compound 3g, (E)-N′-[1-(8-Ethoxy-2-oxo-2H-chromen-3-yl)ethylidene]furan-2-carbohydrazide] | 189 ± 9.65 nM | >100
COc1cccc2cc(/C(C)=N/NC(=S)NCc3ccccc3)c(=O)oc12 [Compound 5a, (E)-N-Benzyl-2-[1-(8-methoxy-2-oxo-2H-chromen-3-yl)ethylidene]hydrazine-1-carbothioamide] | 264.5 ± 2.64 nM | >100
COc1cccc2cc(/C(C)=N/NC(=S)Nc3ccc(C)cc3C)c(=O)oc12 [Compound 5b, (E)-N-(2,4-Dimethylphenyl)-2-[1-(8-methoxy-2-oxo-2H-chromen-3-yl)ethylidene] hydrazine-1-carbothioamide] | 198 ± 6.04 nM | 58.06 ± 0.08
COc1cccc2cc(/C(C)=N/NC(=S)NCc3ccc(C)cc3)c(=O)oc12 [Compound 5c, (E)-2-[1-(8-Methoxy-2-oxo-2H-chromen-3-yl)ethylidene]-N-(4-methylbenzyl) hydrazine-1-carbothioamide] | 128 ± 2.82 nM | 43.55 ± 0.10
COc1cccc2cc(/C(C)=N/NC(=S)NCC(C)C)c(=O)oc12 [Compound 5d, (E)-N-Isobutyl-2-[1-(8-methoxy-2-oxo-2H-chromen-3-yl)ethylidene]hydrazine-1-carbothioamide] | 237 ± 3.43 nM | 50.38 ± 0.04
COc1cccc2cc(/C(C)=N/NC(N)=S)c(=O)oc12 [Compound 5e, (E)-2-[1-(8-Methoxy-2-oxo-2H-chromen-3-yl)ethylidene]hydrazine-1-carbothioamide] | 146 ± 7.35 nM | 35.96 ± 0.52
O=C(O)CN(CCN(CC(=O)O)CC(=O)O)CC(=O)O [EDTA, Ethylenediaminetetraacetic acid, reference compound] | – | 66.82 ± 0.40
